The results in this text go back to US12485169B2, “Compounds” (GREY WOLF THERAPEUTICS LIMITED, priority 2018, dated 2025).

A word on the IC50: it is the concentration that gives 50% inhibition.

Molecules are shown by their SMILES.

In this test the target is T1, Purified ERAP1 (37-941)-10His (ERAP1) (Homo sapiens, UniProt Q9NZ08).
T1 construct: Purified ERAP1 (37-941)-10His (ERAP1)
T1 sequence (Q9NZ08 37-941): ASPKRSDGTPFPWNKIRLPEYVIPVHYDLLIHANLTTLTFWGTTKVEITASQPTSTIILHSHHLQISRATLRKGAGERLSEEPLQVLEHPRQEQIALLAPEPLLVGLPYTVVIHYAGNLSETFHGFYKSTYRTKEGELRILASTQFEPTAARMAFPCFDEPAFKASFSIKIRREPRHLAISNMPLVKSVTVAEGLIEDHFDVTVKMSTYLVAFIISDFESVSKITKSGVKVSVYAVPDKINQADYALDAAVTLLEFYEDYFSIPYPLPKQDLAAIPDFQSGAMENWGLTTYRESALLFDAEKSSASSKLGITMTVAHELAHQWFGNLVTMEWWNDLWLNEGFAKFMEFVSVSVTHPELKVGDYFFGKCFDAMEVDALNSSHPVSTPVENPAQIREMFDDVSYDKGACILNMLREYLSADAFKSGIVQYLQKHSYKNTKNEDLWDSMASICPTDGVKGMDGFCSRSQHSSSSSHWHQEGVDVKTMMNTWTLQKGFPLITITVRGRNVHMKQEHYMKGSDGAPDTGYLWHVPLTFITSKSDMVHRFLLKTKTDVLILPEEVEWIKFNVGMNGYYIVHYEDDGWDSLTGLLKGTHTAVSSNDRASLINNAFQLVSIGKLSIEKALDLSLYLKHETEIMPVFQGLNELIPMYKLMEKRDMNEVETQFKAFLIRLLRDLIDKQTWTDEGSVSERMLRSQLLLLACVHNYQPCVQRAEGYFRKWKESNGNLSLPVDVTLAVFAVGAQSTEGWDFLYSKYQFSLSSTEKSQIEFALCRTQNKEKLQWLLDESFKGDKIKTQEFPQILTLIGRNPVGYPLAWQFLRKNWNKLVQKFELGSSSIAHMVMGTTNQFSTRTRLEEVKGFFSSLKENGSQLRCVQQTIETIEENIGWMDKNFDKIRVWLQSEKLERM
Put plainly: ERAP1 mediated hydrolysis of an amide substrate (10-mer inhibition assay), biochemical system. The note with it: 10-mer substrate, 23° C., 1 h, excitation 279 nm / emission 355 nm; read-out: IC50 vs Decapeptide WRVYEKC(Dnp)ALK-acid (where Dnp is Dinitrophenyl maleimide) (10-mer).
Regarding `O=C(O)c1ccc(CO)c(S(=O)(=O)Nc2cc(C(F)(F)F)ccc2N2CCCCC2)c1` [Example 229, 4-(hydroxymethyl)-3-(N-(2-(piperidin-1-yl)-5-(trifluoromethyl)phenyl)sulfamoyl)benzoic acid], the IC50 was under 500 nM.
Take `CCc1ccc(C(=O)O)cc1S(=O)(=O)Nc1ccc(C(F)(F)F)cc1N1CCCCC1` [Example 230, 4-ethyl-3-(N-(2-(piperidin-1-yl)-4-(trifluoromethyl)phenyl)sulfamoyl)benzoic acid]: the IC50 was under 500 nM.
As to `CSc1ccc(C(=O)O)cc1S(=O)(=O)Nc1cc(C(F)(F)F)ccc1N1CCCCC1` [Example 232, 4-(methylthio)-3-(N-(2-(piperidin-1-yl)-5-(trifluoromethyl)phenyl)sulfamoyl)benzoic acid], the IC50 was under 500 nM.
Turning to `COc1ccc(C(=O)O)cc1S(=O)(=O)Nc1cc(C#N)ccc1N1CCCC(F)(F)C1` [Example 233, 3-(N-(5-cyano-2-(3,3-difluoropiperidin-1-yl)phenyl)sulfamoyl)-4-methoxybenzoic acid], the IC50 was under 500 nM.
In the case of `CCc1ccc(C(=O)O)cc1S(=O)(=O)Nc1cc(C#N)ccc1N1CCCC(F)(F)C1` [Example 234, 3-(N-(5-cyano-2-(3,3-difluoropiperidin-1-yl)phenyl)sulfamoyl)-4-ethylbenzoic acid], the IC50 was under 500 nM.
`COc1ccc(C(=O)O)cc1S(=O)(=O)Nc1cc(C(F)(F)F)ccc1N1CCCC[C@H]1C` [Example 235, I-4-methoxy-3-(N-(2-(2-methylpiperidin-1-yl)-5-(trifluoromethyl)phenyl)sulfamoyl)benzoic acid]: the IC50 is under 500 nM.
For the compound `CCc1ccc(C(=O)O)cc1S(=O)(=O)Nc1cc(C(F)(F)F)ccc1N1CCCC[C@H]1C` [Example 236, I-4-ethyl-3-(N-(2-(2-methylpiperidin-1-yl)-5-(trifluoromethyl)phenyl)sulfamoyl)benzoic acid], the IC50 is under 500 nM.
Next, `COc1ccc(C(=O)O)cc1S(=O)(=O)Nc1cc(C(F)(F)F)ccc1N1CCC(C#N)CC1` [Example 237, 3-(N-(2-(4-cyanopiperidin-1-yl)-5-(trifluoromethyl)phenyl)sulfamoyl)-4-methoxybenzoic acid]: under 500 nM; `CCc1ccc(C(=O)O)cc1S(=O)(=O)Nc1cc(C(F)(F)F)ccc1N1CCC(C#N)CC1` [Example 238, 3-(N-(2-(4-cyanopiperidin-1-yl)-5-(trifluoromethyl)phenyl)sulfamoyl)-4-ethylbenzoic acid]: under 500 nM; `COc1ccc(C(=O)O)cc1S(=O)(=O)Nc1cc(C(F)(F)F)ccc1N1CCCC[C@@H]1C` [Example 239, (S)-4-methoxy-3-(N-(2-(2-methylpiperidin-1-yl)-5-(trifluoromethyl)phenyl)sulfamoyl)benzoic acid]: under 500 nM.
Regarding `CCc1ccc(C(=O)O)cc1S(=O)(=O)Nc1cc(C(F)(F)F)ccc1N1CCCC[C@@H]1C` [Example 240, (S)-4-ethyl-3-(N-(2-(2-methylpiperidin-1-yl)-5-(trifluoromethyl)phenyl)sulfamoyl)benzoic acid], the IC50 is under 500 nM.
In the case of `CCc1ccc(C(=O)O)cc1S(=O)(=O)Nc1cc(S(C)(=O)=O)ccc1N1CCCCC1` [Example 241, 4-ethyl-3-(N-(5-(methylsulfonyl)-2-(piperidin-1-yl)phenyl)sulfamoyl)benzoic acid], the IC50 is under 500 nM.
In the case of `CCc1ccc(C(=O)O)cc1S(=O)(=O)Nc1cc(-n2cnnn2)ccc1N1CCCCC1` [Example 242, 4-ethyl-3-(N-(2-(piperidin-1-yl)-5-(tetrazol-1-yl)phenyl)sulfamoyl)benzoic acid], the IC50 is under 500 nM.
Regarding `COc1ccc(C(=O)O)cc1S(=O)(=O)Nc1cc(C(F)(F)F)ccc1N1CCC[C@@H](O)C1` [Example 243, I-3-(N-(2-(3-hydroxypiperidin-1-yl)-5-(trifluoromethyl)phenyl)sulfamoyl)-4-methoxybenzoic acid], the IC50 is under 500 nM.
Take `COc1ccc(C(=O)O)cc1S(=O)(=O)Nc1cc(C(F)(F)F)ccc1N1CCC[C@H](O)C1` [Example 244, (S)-3-(N-(2-(3-hydroxypiperidin-1-yl)-5-(trifluoromethyl)phenyl)sulfamoyl)-4-methoxybenzoic acid]: the IC50 was under 500 nM.
As for `COc1ccc(C(=O)O)cc1S(=O)(=O)Nc1cc(S(C)(=O)=O)ccc1N1CCC[C@@H](O)C1` [Example 245, I-3-(N-(2-(3-hydroxypiperidin-1-yl)-5-(methylsulfonyl)phenyl)sulfamoyl)-4-methoxybenzoic acid], the 50% inhibitory concentration (IC50) is under 500 nM.
On to `COc1ccc(C(=O)O)cc1S(=O)(=O)Nc1cc(S(C)(=O)=O)ccc1N1CCC[C@H](O)C1` [Example 246, (S)-3-(N-(2-(3-hydroxypiperidin-1-yl)-5-(methylsulfonyl)phenyl)sulfamoyl)-4-methoxybenzoic acid], for which the IC50 is under 500 nM.
Turning to `CCc1ccc(C(=O)O)cc1S(=O)(=O)Nc1cc(S(C)(=O)=O)ccc1N1CCC[C@H](O)C1` [Example 247, (S)-4-ethyl-3-(N-(2-(3-hydroxypiperidin-1-yl)-5-(methylsulfonyl)phenyl)sulfamoyl)benzoic acid], the IC50 is under 500 nM.
On to `COc1ccc(C(=O)O)cc1S(=O)(=O)Nc1cc(-n2cnnn2)ccc1N1CCC[C@@H](O)C1` [Example 248, I-3-(N-(2-(3-hydroxypiperidin-1-yl)-5-(tetrazol-1-yl)phenyl)sulfamoyl)-4-methoxybenzoic acid], for which the IC50 was under 500 nM.
As to `CCc1ccc(C(=O)O)cc1S(=O)(=O)Nc1cc(C(F)(F)F)ccc1N1CCC[C@@H](O)C1` [Example 249, I-4-ethyl-3-(N-(2-(3-hydroxypiperidin-1-yl)-5-(trifluoromethyl)phenyl)sulfamoyl)benzoic acid], the IC50 is under 500 nM.
The same measure for `CCc1ccc(C(=O)O)cc1S(=O)(=O)Nc1cc(C(F)(F)F)ccc1N1CCC[C@H](O)C1` [Example 250, (S)-4-ethyl-3-(N-(2-(3-hydroxypiperidin-1-yl)-5-(trifluoromethyl)phenyl)sulfamoyl)benzoic acid]: under 500 nM; for `CCc1ccc(C(=O)O)cc1S(=O)(=O)Nc1cc(S(C)(=O)=O)ccc1N1CCC[C@@H](O)C1` [Example 251, I-4-ethyl-3-(N-(2-(3-hydroxypiperidin-1-yl)-5-(methylsulfonyl)phenyl)sulfamoyl)benzoic acid]: under 500 nM.
With `CCc1ccc(C(=O)O)cc1S(=O)(=O)Nc1cc(-n2cnnn2)ccc1N1CCC[C@@H](O)C1` [Example 252, I-4-ethyl-3-(N-(2-(3-hydroxypiperidin-1-yl)-5-(tetrazol-1-yl)phenyl)sulfamoyl)benzoic acid], the IC50 is under 500 nM.
The same measure for `COc1ccc(C(=O)O)cc1S(=O)(=O)Nc1cc(-n2cnnn2)ccc1N1CCC[C@H](O)C1` [Example 253, (S)-3-(N-(2-(3-hydroxypiperidin-1-yl)-5-(tetrazol-1-yl)phenyl)sulfamoyl)-4-methoxybenzoic acid]: under 500 nM; for `CCc1ccc(C(=O)O)cc1S(=O)(=O)Nc1cc(-n2cnnn2)ccc1N1CCC[C@H](O)C1` [Example 254, (S)-4-ethyl-3-(N-(2-(3-hydroxypiperidin-1-yl)-5-(tetrazol-1-yl)phenyl)sulfamoyl)benzoic acid]: under 500 nM; for `CCc1ccc(C(=O)O)cc1S(=O)(=O)Nc1cc(S(C)(=O)=O)ccc1N1CC(C)(O)C1` [Example 255, 4-ethyl-3-(N-(2-(3-hydroxy-3-methylazetidin-1-yl)-5-(methylsulfonyl)phenyl)sulfamoyl)benzoic acid]: under 5000 nM.
As for `CCc1ccc(C(=O)O)cc1S(=O)(=O)Nc1cc(-n2cnnn2)ccc1N1CC(C)(O)C1` [Example 257, 4-ethyl-3-(N-(2-(3-hydroxy-3-methylazetidin-1-yl)-5-(tetrazol-1-yl)phenyl)sulfamoyl)benzoic acid], the IC50 is under 500 nM.
Turning to `COc1ccc(C(=O)O)cc1S(=O)(=O)Nc1cc(C#N)ccc1N1CCC[C@@H](O)C1` [Example 258, I-3-(N-(5-cyano-2-(3-hydroxypiperidin-1-yl)phenyl)sulfamoyl)-4-methoxybenzoic acid], the IC50 is under 500 nM.
`COc1ccc(C(=O)O)cc1S(=O)(=O)Nc1cc(-c2nn[nH]n2)ccc1N1CCCCC1` [Example 259, 4-methoxy-3-(N-(2-(piperidin-1-yl)-5-(tetrazol-5-yl)phenyl)sulfamoyl)benzoic acid]: the IC50 is under 500 nM.
Consider `CCc1ccc(C(=O)O)cc1S(=O)(=O)Nc1cc(C#N)ccc1N1CCC[C@@H](O)C1` [Example 260, I-3-(N-(5-cyano-2-(3-hydroxypiperidin-1-yl)phenyl)sulfamoyl)-4-ethylbenzoic acid], for which the IC50 was under 500 nM.
The same measure for `CCc1ccc(C(=O)O)cc1S(=O)(=O)Nc1cc(-c2nn[nH]n2)ccc1N1CCCCC1` [Example 261, 4-ethyl-3-(N-(2-(piperidin-1-yl)-5-(tetrazol-5-yl)phenyl)sulfamoyl)benzoic acid]: under 500 nM.
Consider `CCc1ccc(C(=O)O)cc1S(=O)(=O)Nc1cc(S(C)(=O)=O)ccc1N1CCC[C@@H](F)C1` [Example 262, I-4-ethyl-3-(N-(2-(3-fluoropiperidin-1-yl)-5-(methylsulfonyl)phenyl)sulfamoyl)benzoic acid], for which the concentration for half-maximal inhibition (IC50) was under 500 nM.
For the compound `CCc1ccc(C(=O)O)cc1S(=O)(=O)Nc1cc(C#N)ccc1N1CCC[C@H](O)C1` [Example 263, (S)-3-(N-(5-cyano-2-(3-hydroxypiperidin-1-yl)phenyl)sulfamoyl)-4-ethylbenzoic acid], the 50% inhibitory concentration (IC50) was under 500 nM.
In the case of `COc1ccc(C(=O)O)cc1S(=O)(=O)Nc1cc(C#N)ccc1N1CCC[C@H](O)C1` [Example 264, (S)-3-(N-(5-cyano-2-(3-hydroxypiperidin-1-yl)phenyl)sulfamoyl)-4-methoxybenzoic acid], the IC50 is under 500 nM.
The same measure for `COc1ccc(C(=O)O)cc1S(=O)(=O)Nc1cc(-n2cnnn2)ccc1N1CCC[C@@H](F)C1` [Example 265, I-3-(N-(2-(3-fluoropiperidin-1-yl)-5-(tetrazol-1-yl)phenyl)sulfamoyl)-4-methoxybenzoic acid]: under 500 nM.
